IC50 data for 15 compounds are collected here from US20210070748A1, “INHIBITORS OF BRUTONS TYROSINE KINASE” (Pharmacyclics LLC, priority 2015, published 2021).

Bounds are passed on as bounds.

Common to all, as to format: biochemical
For test [1], the target named is T1, JAK3 (Homo sapiens, UniProt P52333).
T1 sequence (P52333 1-1124): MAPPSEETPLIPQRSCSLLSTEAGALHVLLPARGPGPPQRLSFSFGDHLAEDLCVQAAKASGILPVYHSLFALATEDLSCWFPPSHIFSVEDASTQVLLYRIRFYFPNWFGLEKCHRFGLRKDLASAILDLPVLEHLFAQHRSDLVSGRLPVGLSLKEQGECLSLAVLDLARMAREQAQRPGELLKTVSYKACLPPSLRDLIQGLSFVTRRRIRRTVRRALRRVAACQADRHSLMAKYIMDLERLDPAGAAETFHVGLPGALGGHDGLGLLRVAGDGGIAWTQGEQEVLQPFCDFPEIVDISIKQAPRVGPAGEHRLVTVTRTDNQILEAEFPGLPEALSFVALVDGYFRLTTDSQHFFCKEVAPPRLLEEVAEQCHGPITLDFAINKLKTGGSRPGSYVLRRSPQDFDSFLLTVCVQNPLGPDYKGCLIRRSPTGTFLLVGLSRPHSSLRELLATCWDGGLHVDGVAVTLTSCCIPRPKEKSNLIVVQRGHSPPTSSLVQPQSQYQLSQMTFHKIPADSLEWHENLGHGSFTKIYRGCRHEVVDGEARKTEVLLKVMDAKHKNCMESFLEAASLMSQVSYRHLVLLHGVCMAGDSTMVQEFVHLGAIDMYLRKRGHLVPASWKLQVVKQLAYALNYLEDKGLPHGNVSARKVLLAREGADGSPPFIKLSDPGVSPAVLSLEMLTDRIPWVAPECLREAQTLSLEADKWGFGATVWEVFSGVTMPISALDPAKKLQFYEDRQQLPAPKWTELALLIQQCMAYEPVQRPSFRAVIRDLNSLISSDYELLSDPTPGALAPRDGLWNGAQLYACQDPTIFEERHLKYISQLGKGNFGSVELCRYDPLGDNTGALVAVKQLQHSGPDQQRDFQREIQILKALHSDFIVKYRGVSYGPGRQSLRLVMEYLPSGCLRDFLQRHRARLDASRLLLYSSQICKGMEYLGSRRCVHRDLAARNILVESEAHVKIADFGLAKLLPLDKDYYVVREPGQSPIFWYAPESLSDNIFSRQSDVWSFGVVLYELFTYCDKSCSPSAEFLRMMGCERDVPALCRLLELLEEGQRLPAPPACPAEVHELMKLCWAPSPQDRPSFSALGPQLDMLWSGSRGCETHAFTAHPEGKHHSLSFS
The test can be described thus: Inhibition of a panel of kinases, in vitro HotSpot kinase assay: JAK3. The following applies: D-compounds panel data; 1 μM ATP; read-out: IC50 JAK3.

Test [2] concerns the target EGFR (Homo sapiens, UniProt P00533). Put plainly: Inhibition of a panel of kinases, in vitro HotSpot kinase assay: EGFR. Conditions: D-compounds panel data; 1 μM ATP. How it is done: (§1) The degree of inhibition of a panel of kinases is determined using the in vitro HotSpot kinase assay (purified enzymes, ^33P-ATP, an appropriate substrate and 1 μM ATP).
Test [3] concerns the target T2, BTK-WT (Homo sapiens, UniProt Q06187).
T2 construct: purified from insect cells as a full-length construct containing an N-terminal 6X-His tag; His6 (N); made in house; host or cells: insect cells (baculovirus Sf21 in Method B)
The test can be described thus: Btk in vitro inhibitory activity (one of Method A TR-FRET, Method B electrophoretic mobility shift, Method C radiometric filter binding). The following applies: D-compounds panel data; read-out: IC50 BTK-WT. On the technique in general: In EMSA bound probe runs differently from free probe, usually more slowly.

Test [4] addresses SRC (Homo sapiens, UniProt P12931). The test can be described thus: Inhibition of a panel of kinases, in vitro HotSpot kinase assay: SRC. Conditions: D-compounds panel data; 1 μM ATP. Here is the method: as §1

Sequence of EGFR (P00533 25-1210): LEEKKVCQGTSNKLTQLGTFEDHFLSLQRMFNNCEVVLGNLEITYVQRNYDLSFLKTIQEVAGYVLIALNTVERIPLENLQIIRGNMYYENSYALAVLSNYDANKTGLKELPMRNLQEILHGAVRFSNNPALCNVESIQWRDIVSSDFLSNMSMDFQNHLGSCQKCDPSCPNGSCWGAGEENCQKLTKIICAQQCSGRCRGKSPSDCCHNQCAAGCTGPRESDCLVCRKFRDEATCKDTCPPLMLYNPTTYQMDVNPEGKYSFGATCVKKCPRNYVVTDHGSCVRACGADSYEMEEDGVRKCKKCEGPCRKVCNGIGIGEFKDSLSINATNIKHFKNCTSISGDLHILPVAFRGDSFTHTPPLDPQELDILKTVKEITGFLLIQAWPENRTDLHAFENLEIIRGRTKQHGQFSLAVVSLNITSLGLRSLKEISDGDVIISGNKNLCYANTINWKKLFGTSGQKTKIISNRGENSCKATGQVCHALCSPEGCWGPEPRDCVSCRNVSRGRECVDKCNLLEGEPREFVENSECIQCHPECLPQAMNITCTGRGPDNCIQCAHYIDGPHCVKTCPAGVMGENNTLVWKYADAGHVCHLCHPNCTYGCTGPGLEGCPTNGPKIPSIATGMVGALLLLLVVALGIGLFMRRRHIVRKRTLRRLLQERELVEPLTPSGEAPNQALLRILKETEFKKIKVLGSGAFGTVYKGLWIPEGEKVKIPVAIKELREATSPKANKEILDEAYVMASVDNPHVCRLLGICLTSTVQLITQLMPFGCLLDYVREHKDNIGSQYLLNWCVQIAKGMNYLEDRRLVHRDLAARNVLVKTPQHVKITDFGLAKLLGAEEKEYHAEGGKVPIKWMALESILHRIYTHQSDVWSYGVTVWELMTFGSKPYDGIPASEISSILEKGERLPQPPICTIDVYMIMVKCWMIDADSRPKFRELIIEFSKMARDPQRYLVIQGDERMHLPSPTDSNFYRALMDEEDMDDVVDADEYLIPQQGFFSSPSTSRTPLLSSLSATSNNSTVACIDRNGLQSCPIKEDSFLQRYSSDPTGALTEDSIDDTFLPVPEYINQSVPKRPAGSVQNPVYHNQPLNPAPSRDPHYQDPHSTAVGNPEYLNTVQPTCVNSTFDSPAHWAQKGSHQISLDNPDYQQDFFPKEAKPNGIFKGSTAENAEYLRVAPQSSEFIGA
T2 sequence (Q06187 whole entry): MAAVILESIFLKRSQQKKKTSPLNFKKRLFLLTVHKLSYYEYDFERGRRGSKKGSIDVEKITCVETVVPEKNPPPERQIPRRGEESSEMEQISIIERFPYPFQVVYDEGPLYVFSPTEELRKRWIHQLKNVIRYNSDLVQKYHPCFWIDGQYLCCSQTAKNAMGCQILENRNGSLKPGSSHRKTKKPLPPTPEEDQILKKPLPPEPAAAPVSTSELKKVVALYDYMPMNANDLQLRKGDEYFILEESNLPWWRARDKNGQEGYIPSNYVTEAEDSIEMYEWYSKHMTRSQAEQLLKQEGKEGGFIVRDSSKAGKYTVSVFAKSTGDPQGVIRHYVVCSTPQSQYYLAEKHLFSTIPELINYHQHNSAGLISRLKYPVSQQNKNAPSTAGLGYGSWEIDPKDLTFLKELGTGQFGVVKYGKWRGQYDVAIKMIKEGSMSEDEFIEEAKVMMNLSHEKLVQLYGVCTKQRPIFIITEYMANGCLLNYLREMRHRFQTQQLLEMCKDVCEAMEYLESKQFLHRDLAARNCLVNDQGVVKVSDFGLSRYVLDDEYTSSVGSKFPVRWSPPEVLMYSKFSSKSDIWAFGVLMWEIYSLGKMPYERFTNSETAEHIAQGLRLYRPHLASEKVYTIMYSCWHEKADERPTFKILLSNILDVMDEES
Sequence of SRC (P12931 whole entry): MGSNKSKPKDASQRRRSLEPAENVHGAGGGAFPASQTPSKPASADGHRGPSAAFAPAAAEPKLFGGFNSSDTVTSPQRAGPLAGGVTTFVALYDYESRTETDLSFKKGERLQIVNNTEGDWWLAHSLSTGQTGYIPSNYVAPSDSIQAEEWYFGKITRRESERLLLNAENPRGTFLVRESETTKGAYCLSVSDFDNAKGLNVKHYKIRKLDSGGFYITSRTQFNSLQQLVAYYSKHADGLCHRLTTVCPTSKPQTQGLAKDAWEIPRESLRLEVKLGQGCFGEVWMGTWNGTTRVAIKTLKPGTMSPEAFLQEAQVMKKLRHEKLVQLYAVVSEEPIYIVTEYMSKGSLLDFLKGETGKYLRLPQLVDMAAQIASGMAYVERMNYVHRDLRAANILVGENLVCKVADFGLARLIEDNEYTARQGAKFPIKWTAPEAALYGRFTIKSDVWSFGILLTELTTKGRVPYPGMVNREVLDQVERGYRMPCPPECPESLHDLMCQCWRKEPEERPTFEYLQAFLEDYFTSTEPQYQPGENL

Take `C[C@@H]1[C@H](NC(=O)c2ccc(C3CC3)nc2)CCCN1c1cnc(C(N)=O)c(Nc2cnn(C)c2)n1` [Example D-18, 5-[(2R,3R)-3-(6-cyclopropylpyridine-3-amido)-2-methylpiperidin-1-yl]-3-[(1-methyl-1H-pyrazol-4-yl)amino]pyrazine-2-carboxamide]: the IC50 was 1000 to 10000 nM in test [1], 1000 to 10000 nM in test [2], not above 10 nM in test [3] and 10 to 100 nM in test [4].
Consider `C[C@@H]1[C@H](NC(=O)c2ccc(N(C)CCO)cc2)CCCN1c1cnc(C(N)=O)c(Nc2cnn(C)c2)n1` [Example D-217, 5-[(2R,3R)-3-{4-[(2-hydroxyethyl)(methyl)amino]benzamido}-2-methylpiperidin-1-yl]-3-[(1-methyl-1H-pyrazol-4-yl)amino]pyrazine-2-carboxamide], for which the IC50 in test [1] was 100 to 1000 nM; in test [2], 1000 to 10000 nM; in test [3] it was not above 10 nM; in test [4], 10 to 100 nM.
Turning to `C[C@@H]1[C@H](NC(=O)c2ccc3scnc3c2)CCCN1c1cnc(C(N)=O)c(Nc2cnn(C)c2)n1` [Example D-237, N-[(2R,3R)-1-{5-carbamoyl-6-[(1-methyl-1H-pyrazol-4-yl)amino]pyrazin-2-yl}-2-methylpiperidin-3-yl]-1,3-benzothiazole-5-carboxamide], the IC50 in test [1] is 100 to 1000 nM; in test [2] it was 1000 to 10000 nM; in test [3] it was not above 10 nM; in test [4] it was 10 to 100 nM.
For `Cn1cc(Nc2nc(N3CCC[C@@H](n4ccc5cc(C6CC6)ccc5c4=O)C3)cnc2C(N)=O)cn1` [Example D-184, 5-[(3R)-3-(6-cyclopropyl-1-oxo-1,2-dihydroisoquinolin-2-yl)piperidin-1-yl]-3-[(1-methyl-1H-pyrazol-4-yl)amino]pyrazine-2-carboxamide], the IC50 was more than 10000 nM in test [1], more than 10000 nM in test [2], not above 10 nM in test [3] and 1000 to 10000 nM in test [4].
Turning to `CC(C)c1ccc(C(=O)N[C@@H]2CCCN(c3cnc(C(N)=O)c(Nc4cnn(C)c4)n3)C2)cc1` [Example D-222, 3-[(1-Methyl-1H-pyrazol-4-yl)amino]-5-[(3R)-3-[4-(propan-2-yl)benzamido]piperidin-1-yl]pyrazine-2-carboxamide], the IC50 in test [1] was more than 10000 nM; in test [2], more than 10000 nM; in test [3], not above 10 nM; in test [4], 1000 to 10000 nM.
Take `C/C=C/c1ccc(C(=O)N[C@@H]2CCCN(c3cnc(C(N)=O)c(Nc4cc(C)ns4)c3)[C@@H]2C)c(F)c1` [Example D-170, 5-[(2R,3R)-3-{2-fluoro-4-[(1E)-prop-1-en-1-yl]benzamido}-2-methylpiperidin-1-yl]-3-[(3-methyl-1,2-thiazol-5-yl)amino]pyridine-2-carboxamide]: the IC50 in test [1] lay within 1000 to 10000 nM; in test [2] it was 100 to 1000 nM; in test [3], 10 to 100 nM; in test [4] it was 100 to 1000 nM.
With `C[C@@H]1[C@H](NC(=O)c2ccc(C(C)(C)C)cn2)CCCN1c1cnc(C(N)=O)c(Nc2cnn(C)c2)n1` [Example D-208, 5-[(2R,3R)-3-(5-tert-butylpyridine-2-amido)-2-methylpiperidin-1-yl]-3-[(1-methyl-1H-pyrazol-4-yl)amino]pyrazine-2-carboxamide], the IC50 in test [1] is 1000 to 10000 nM; in test [2], 1000 to 10000 nM; in test [3] it was not above 10 nM; in test [4], 10 to 100 nM.
On to `CN1CCN(C(=O)c2ccc(Nc3nc(N4CCC[C@@H](n5ccc6cc(C7CC7)ccc6c5=O)C4)cnc3C(N)=O)cc2)CC1` [Example D-169, 5-[(3R)-3-(6-cyclopropyl-1-oxo-1,2-dihydroisoquinolin-2-yl)piperidin-1-yl]-3-{[4-(4-methylpiperazine-1-carbonyl)phenyl]amino}pyrazine-2-carboxamide], for which the IC50 in test [1] was 100 to 1000 nM; in test [2], 100 to 1000 nM; in test [3], not above 10 nM; in test [4] it was 100 to 1000 nM.
`C[C@@H]1[C@H](NC(=O)c2ccc(C3CC3)cc2)CCCN1c1cnc(C(N)=O)c(Nc2cnn(CC(C)(C)O)c2)n1` [Example D-215, 5-[(2R,3R)-3-(4-cyclopropylbenzamido)-2-methylpiperidin-1-yl]-3-{[1-(2-hydroxy-2-methylpropyl)-1H-pyrazol-4-yl]amino}pyrazine-2-carboxamide]: the IC50 in test [1] is more than 10000 nM; in test [2], more than 10000 nM; in test [3] it was not above 10 nM; in test [4], 100 to 1000 nM.
As to `C[C@@H]1[C@H](NC(=O)c2ccc(C3(C(F)(F)F)CC3)cc2)CCCN1c1cnc(C(N)=O)c(Nc2cnn(C)c2)n1` [Example D-221, 3-[(1-Methyl-1H-pyrazol-4-yl)amino]-5-[(2R,3R)-2-methyl-3-{4-[1-(trifluoromethyl)cyclopropyl]benzamido}piperidin-1-yl]pyrazine-2-carboxamide], the IC50 in test [1] is more than 10000 nM; in test [2], 1000 to 10000 nM; in test [3] it was not above 10 nM; in test [4], 100 to 1000 nM.
As to `Cn1cc(Nc2nc(N3C4CCC(NC(=O)c5ccc(C6CC6)cc5)C3CC4)cnc2C(N)=O)cn1` (single isomer, unassigned) [Example D-202, 5-[2-(4-cyclopropylbenzamido)-8-azabicyclo[3.2. I]octan-8-yl]-3-[(1-methyl-1H-pyrazol-4-yl)amino]pyrazine-2-carboxamide], the IC50 in test [1] is more than 10000 nM; in test [2] it was more than 10000 nM; in test [3], 10 to 100 nM; in test [4] it was 100 to 1000 nM.
`C[C@@H]1[C@H](NC(=O)c2ccc(C(C)(C)C)cc2)CCCN1c1cnc(C(N)=O)c(Nc2ccc(N3CCN(C)CC3)cc2)n1` [Example D-14, 5-[(2R,3R)-3-(4-tert-butylbenzamido)-2-methylpiperidin-1-yl]-3-{[4-(4-methylpiperazin-1-yl)phenyl]amino}pyrazine-2-carboxamide]: the IC50 in test [1] was 1000 to 10000 nM; in test [2] it was 1000 to 10000 nM; in test [3], not above 10 nM; in test [4] it was 10 to 100 nM.
As for `Cn1cc(Nc2nc(N3C4CCC(NC(=O)c5ccc(C6CC6)cc5)C3CC4)cnc2C(N)=O)cn1` (single isomer, unassigned) [Example D-201, 5-[2-(4-cyclopropylbenzamido)-8-azabicyclo[3.2.1]octan-8-yl]-3-[(1-methyl-1H-pyrazol-4-yl)amino]pyrazine-2-carboxamide], the IC50 in test [1] was 1000 to 10000 nM; in test [2], 1000 to 10000 nM; in test [3], not above 10 nM; in test [4] it was 10 to 100 nM.
`Cc1cc(Nc2nc(N3CCC[C@@H](c4ncc(-c5ccccc5)[nH]4)C3)cnc2C(N)=O)sn1` [Example D-171, 3-[(3-methyl-1,2-thiazol-5-yl)amino]-5-[(3R)-3-(5-phenyl-1H-imidazol-2-yl)piperidin-1-yl]pyrazine-2-carboxamide]: the 50% inhibitory concentration (IC50) in test [1] is 100 to 1000 nM; in test [2] it was more than 10000 nM; in test [3] it was 10 to 100 nM; in test [4] it was 100 to 1000 nM.
`CN1CCN([C@@H]2CCCN(c3cnc(C(N)=O)c(Nc4cnn(C)c4)n3)C2)C1=O` [Example D-209, 3-[(1-methyl-1H-pyrazol-4-yl)amino]-5-[(3R)-3-(3-methyl-2-oxoimidazolidin-1-yl)piperidin-1-yl]pyrazine-2-carboxamide]: the IC50 in test [1] is 1000 to 10000 nM; in test [2] it was more than 10000 nM; in test [3], 10 to 100 nM; in test [4], 100 to 1000 nM.

A word on the IC50: it is the point on the concentration scale where inhibition reaches its midpoint.
